Experimental data reported in patent US11149031B2, “Substituted N-(3-fluoropropyl)-pyrrolidine compounds, processes for their preparation and therapeutic uses thereof” (SANOFI, priority 2016, dated 2021).
Read-outs that look alike come from different tables or passages of the source.

How the values were obtained:
[1] = system: MCF7 cells expressing mutant estrogen receptor Asp 538 Gly; experiment: Test B: cell proliferation/viability assay (CellTiter-Glo) on MCF7 Asp 538 Gly mutant; type: cell-based; details: Homo sapiens, MCF7, 168 h, MCF7 cells expressing ER Asp 538 Gly mutant, 7 days of compound exposure, read-out: proliferation MCF7 D538G IC50
Procedure, shortened: (§1)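 Mutant lines are MCF7 transfected with ER mutants and selected for estradiol-independent growth. Cells in phenol red-free MEM with 5% charcoal-stripped FBS received 9-point 1:5 dilutions (3-0.000001 μM) for 7 days; CellTiter-Glo luminescence, % viability relative to untreated after background subtraction.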

[2] = target: His6-ERα298-554 WT (ERα ligand-binding domain) (Homo sapiens (Human), UniProt P03372); experiment: Test A: biochemical antagonist activity, LanthaScreen TR-FRET ERα coactivator assay, WT; details: read-out: Antagonism WT IC50
Procedure, shortened: (§2)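 TR-FRET 520:495 nm emission ratio read after overnight room-temperature incubation; IC50 derived by 4-parameter logistic fit. Mix: 0.5 nM receptor LBD, 0.5 nM Tb-His6 antibody, 250 nM PGC1a peptide, 3 nM or 10 nM estradiol, pH 7.4 phosphate buffer.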

[3] = target: His6-ERα298-554 D538G mutant (ERα ligand-binding domain) (Homo sapiens (Human), UniProt P03372, D538G); experiment: Test A: biochemical antagonist activity, LanthaScreen TR-FRET ERα coactivator assay, D538G mutant; details: read-out: Antagonism D538G IC50
Procedure, shortened: as §2

[4] = system: MCF7 cells expressing mutant estrogen receptor Tyr 537 Ser; experiment: Test B: cell proliferation/viability assay (CellTiter-Glo) on MCF7 Tyr 537 Ser mutant; type: cell-based; details: Homo sapiens, MCF7, 168 h, MCF7 cells expressing ER Tyr 537 Ser mutant, 7 days of compound exposure, read-out: proliferation MCF7 Y537S IC50
Procedure, shortened: as §1

[5] = target: His6-ERα298-554 Y537S mutant (ERα ligand-binding domain) (Homo sapiens (Human), UniProt P03372, Y537S); experiment: Test A: biochemical antagonist activity, LanthaScreen TR-FRET ERα coactivator assay, Y537S mutant; details: read-out: Antagonism Y537S IC50
Procedure, shortened: as §2

[6] = system: MCF7 cells (breast tumor cells) WT; experiment: Test B: cell proliferation/viability assay (CellTiter-Glo) on MCF7 WT; type: cell-based; details: Homo sapiens, MCF7, 168 h, 7 days of compound exposure
Procedure, shortened: as §1

ERα in MCF7 cells = ERα in MCF7 cells (Homo sapiens (Human), UniProt P03372); experiment: Test C: estrogen receptor degradation activity, ERα in cell western assay in MCF7 cells; type: cell-based; details: for DC50: 4 hours post compound addition, ERα in cell western, read-out: Degradation IC50; for % Degradation at 3 μM: 4 hours, relative to fulvestrant
Procedure, shortened: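 MCF7 cells in phenol-red-free medium with 5% charcoal-stripped FBS received compound (9-point 1:5, 3-0.000018 μM) for 4 h, then were fixed. ERα immunostained (Alexa 488) and normalised to DNA (Syto-64), read as integrated fluorescence on an Acumen scanner.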

[7] = asterisk (*): protocol using 10 nM estradiol

Sequence of His6-ERα298-554 Y537S mutant (ERα ligand-binding domain) (P03372 298-554 Y537S): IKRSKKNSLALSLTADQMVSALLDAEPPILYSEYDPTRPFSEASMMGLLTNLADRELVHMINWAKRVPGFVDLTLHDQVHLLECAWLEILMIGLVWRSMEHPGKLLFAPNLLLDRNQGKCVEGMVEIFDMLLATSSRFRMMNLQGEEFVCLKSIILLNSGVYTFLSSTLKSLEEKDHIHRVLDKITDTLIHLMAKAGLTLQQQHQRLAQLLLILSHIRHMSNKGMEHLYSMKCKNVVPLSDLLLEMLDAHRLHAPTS
Sequence of His6-ERα298-554 D538G mutant (ERα ligand-binding domain) (P03372 298-554 D538G): as the sequence (P03372 298-554 Y537S) above, with S240Y, D241G counted along it
Sequence of His6-ERα298-554 WT (ERα ligand-binding domain) (P03372 298-554): as the sequence (P03372 298-554 Y537S) above, with S240Y counted along it
Sequence of ERα in MCF7 cells (P03372 whole entry): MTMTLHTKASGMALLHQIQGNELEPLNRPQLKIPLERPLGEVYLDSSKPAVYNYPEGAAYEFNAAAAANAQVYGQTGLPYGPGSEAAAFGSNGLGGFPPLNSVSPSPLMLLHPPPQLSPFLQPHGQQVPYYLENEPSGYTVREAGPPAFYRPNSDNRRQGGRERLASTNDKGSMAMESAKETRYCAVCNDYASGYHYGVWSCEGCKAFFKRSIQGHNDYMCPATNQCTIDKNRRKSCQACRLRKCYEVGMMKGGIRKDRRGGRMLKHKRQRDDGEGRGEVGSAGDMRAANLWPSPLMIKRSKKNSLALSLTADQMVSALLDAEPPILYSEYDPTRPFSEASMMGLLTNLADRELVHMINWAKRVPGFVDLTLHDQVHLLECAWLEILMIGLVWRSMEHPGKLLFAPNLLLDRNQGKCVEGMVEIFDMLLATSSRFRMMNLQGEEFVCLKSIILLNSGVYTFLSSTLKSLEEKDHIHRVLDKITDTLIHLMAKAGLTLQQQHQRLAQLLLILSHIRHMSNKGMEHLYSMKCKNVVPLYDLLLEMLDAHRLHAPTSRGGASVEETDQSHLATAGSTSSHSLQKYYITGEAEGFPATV

Compound	IC50 [1] [nM]	IC50 [2, 7] [nM]	IC50 [3, 7] [nM]	IC50 [4] [nM]	IC50 [5, 7] [nM]	IC50 [6] [nM]	DC50 (ERα in MCF7 cells) [nM]	% Degradation at 3 μM (ERα in MCF7 cells) [%]	IC50 ([2]; protocol with 3 nM estradiol) [nM]	IC50 ([3]; protocol with 3 nM estradiol) [nM]	IC50 ([5]; protocol with 3 nM estradiol) [nM]
Oc1ccc2c(c1)SCC(c1ccc(OC(F)(F)F)cc1)=C2c1ccc(O[C@H]2CCN(CCCF)C2)nc1 [Example 80, 4-[6-[(3S)-1-(3-fluoropropyl)pyrrolidin-3-yl]oxy-3-pyridyl]-3-[4-(trifluoromethoxy)phenyl]-2H-thiochromen-7-ol]	0.4	12	283	3	154	0.3	0.2	89	–	–	–
Oc1ccc2c(c1)OCC(c1ccc(Cl)cc1Cl)=C2c1ccc(O[C@H]2CCN(CCCF)C2)cc1 [Example 81, 3-(2,4-dichlorophenyl)-4-[4-[(3S)-1-(3-fluoropropyl)pyrrolidin-3-yl]oxyphenyl]-2H-chromen-7-ol]	3.5	520	> 4000	17	> 4000	18	7	77	–	–	–
Oc1ccc2c(c1)OCC(c1ccc(F)cc1Cl)=C2c1ccc(O[C@H]2CCN(CCCF)C2)cc1 [Example 82, 3-(2-chloro-4-fluoro-phenyl)-4-[4-[(3S)-1-(3-fluoropropyl)pyrrolidin-3-yl]oxyphenyl]-2H-chromen-7-ol]	1	297	> 4000	18	2290	15	7	86	–	–	–
Oc1ccc(C2=C(c3ccc(O[C@H]4CCN(CCCF)C4)cc3)c3ccc(O)cc3OC2)cc1 [Example 83, 4-[4-[(3S)-1-(3-fluoropropyl)pyrrolidin-3-yl]oxyphenyl]-3-(4-hydroxyphenyl)-2H-chromen-7-ol]	13	–	–	18	–	2	2	75	81	1320	1160
Oc1ccc2c(c1)C(c1ccc(N[C@H]3CCN(CCCF)C3)cc1)=C(c1ccc(F)cc1Cl)CC2 [Example 84, 7-(2-chloro-4-fluoro-phenyl)-8-[4-[[(3S)-1-(3-fluoropropyl)pyrrolidin-3-yl]amino]phenyl]-5,6-dihydronaphthalen-2-ol]	2	–	–	6	–	0.4	2	78	30	1750	958
Oc1ccc2c(c1)CCCC(c1ccc(Cl)cc1Cl)=C2c1ccc(N[C@H]2CCN(CCCF)C2)cc1 [Example 85, 6-(2,4-dichlorophenyl)-5-[4-[[(3S)-1-(3-fluoropropyl)pyrrolidin-3-yl]amino]phenyl]-8,9-dihydro-7H-benzo[7]annulen-2-ol]	0.7	1	21	7	15	0.4	1	86	–	–	–
CCOc1ccc(C2=C(c3ccc(N[C@H]4CCN(CCCF)C4)cc3)c3ccc(O)cc3CCC2)c(F)n1 [Example 86, 6-(6-ethoxy-2-fluoro-3-pyridyl)-5-[4-[[(3S)-1-(3-fluoropropyl)pyrrolidin-3-yl]amino]phenyl]-8,9-dihydro-7H-benzo[7]annulen-2-ol]	0.2	0.5	7	1	5	0.2	0.5	95	–	–	–
Oc1ccc2c(c1)CCCC(c1ccc(OC(F)(F)F)cc1)=C2c1ccc(N[C@H]2CCN(CCCF)C2)cc1 [Example 87, 5-[4-[[(3S)-1-(3-fluoropropyl)pyrrolidin-3-yl]amino]phenyl]-6-[4-(trifluoromethoxy)phenyl]-8,9-dihydro-7H-benzo[7]annulen-2-ol]	1	23	568	3	294	0.2	0.4	83	–	–	–
Oc1ccc2c(c1)CCCC(c1ccc(OC(F)(F)F)cc1F)=C2c1ccc(N[C@H]2CCN(CCCF)C2)cc1 [Example 88, 5-[4-[[(3S)-1-(3-fluoropropyl)pyrrolidin-3-yl]amino]phenyl]-6-[2-fluoro-4-(trifluoromethoxy)phenyl]-8,9-dihydro-7H-benzo[7]annulen-2-ol]	0.6	12	293	3	159	0.3	0.2	88	–	–	–
CC(C)(C)c1ccc(C2=C(c3ccc(N[C@H]4CCN(CCCF)C4)cc3)c3ccc(O)cc3CCC2)cc1 [Example 89, 6-(4-tert-butylphenyl)-5-[4-[[(3S)-1-(3-fluoropropyl)pyrrolidin-3-yl]amino]phenyl]-8,9-dihydro-7H-benzo[7]annulen-2-ol]	1	27	726	5	423	0.4	1	91	–	–	–
Oc1ccc2c(c1)CCCC(c1ccc(SC(F)(F)F)cc1)=C2c1ccc(N[C@H]2CCN(CCCF)C2)cc1 [Example 90, 5-[4-[[(3S)-1-(3-fluoropropyl)pyrrolidin-3-yl]amino]phenyl]-6-[4-(trifluoromethylsulfanyl)phenyl]-8,9-dihydro-7H-benzo[7]annulen-2-ol]	0.5	12	293	4	165	0.3	0.4	91	–	–	–
Cc1ccc(C2=C(c3ccc(O[C@H]4CCN(CCCF)C4)cc3)c3ccc(O)cc3OCC2)c(F)c1 [Example 96, 4-(2-fluoro-4-methyl-phenyl)-5-[4-[(3S)-1-(3-fluoropropyl)pyrrolidin-3-yl]oxyphenyl]-2,3-dihydro-1-benzoxepin-8-ol]	5	–	–	16	–	2	0.6	91	7	47	19
Oc1ccc2c(c1)OCCC(c1ccc(Cl)cc1F)=C2c1ccc(O[C@H]2CCN(CCCF)C2)cc1 [Example 98, 4-(4-chloro-2-fluoro-phenyl)-5-[4-[(3S)-1-(3-fluoropropyl)pyrrolidin-3-yl]oxyphenyl]-2,3-dihydro-1-benzoxepin-8-ol]	2	–	–	5	–	0.5	0.5	93	14	106	40
Oc1ccc2c(c1)OCCC(c1ccc(Cl)cc1Cl)=C2c1ccc(O[C@H]2CCN(CCCF)C2)cc1 [Example 102, 4-(2,4-dichlorophenyl)-5-[4-[(3S)-1-(3-fluoropropyl)pyrrolidin-3-yl]oxyphenyl]-2,3-dihydro-1-benzoxepin-8-ol]	0.8	–	–	5	–	0.5	2	87	12	106	51
Oc1ccc2c(c1)OCCC(c1ccc3cc[nH]c3c1)=C2c1ccc(O[C@H]2CCN(CCCF)C2)cc1 [Example 103, 5-[4-[(3S)-1-(3-fluoropropyl)pyrrolidin-3-yl]oxyphenyl]-4-(1H-indol-6-yl)-2,3-dihydro-1-benzoxepin-8-ol]	1	–	–	4	–	0.3	3	89	38	252	101
Cc1c(Cl)cccc1C1=C(c2ccc(O[C@H]3CCN(CCCF)C3)cc2)c2ccc(O)c(F)c2OCC1 [Example 105, 4-(3-chloro-2-methyl-phenyl)-9-fluoro-5-[4-[(3S)-1-(3-fluoropropyl)pyrrolidin-3-yl]oxyphenyl]-2,3-dihydro-1-benzoxepin-8-ol]	2	–	–	11	–	0.5	0.2	91	5	38	23
